Assay results taken from patent US20030083558A1, “Method of examining and diagnosing skin health” (priority 2001, published 2003).

How the values were obtained:
IgE = test: Study 2: IgE in ISF by ELISA, effect of supplementation; assay type: in vivo, human
Method: (§1) The laser made four pores at each collection site.
(§2) The other skin analytes were measured in Study 2 using standard ELISA kits: MMP-1 (ELISA Cat # QIA55, Oncogene Research Products, Cambridge Mass.); Total IgE (ELISA Cat # RE59061, IBL, Hamburg, Germany distributed by KMI Diagnostics); Non Extraction IGF-1 (ELISA Cat # DSL-10-2800, Diagnostics Systems Laboratories, Webster Tex.); IL-1 RA (ELISA Cat # DRA00, R&D Systems, Minneapolis, Minn.); IL-1A (ELISA Cat # EH2IL1A, Pierce/Endogen, Rockford, Ill.).

IL-1A = test: Study 2: IL-1A in ISF by ELISA, effect of supplementation; assay type: in vivo, human
Method: as §1, §2

IL-1 RA = test: Study 2: IL-1 RA in ISF by ELISA, effect of supplementation; assay type: in vivo, human
Method: as §1, §2

MMP-1 = test: Study 2: MMP-1 in ISF by ELISA, effect of supplementation; assay type: in vivo, human
Method: as §1, §2

[1] = design: species or system human; details: in vivo
Source text: The studies included non-smoking, female subjects of good health over the age of 35 years and under the age 55 years with skin type of III or less by the Fitzpatrick Skin classification. […] Acceptable subjects were chronologically enrolled in the study following a randomization code describing what treatment would be applied to which dorsal forearm. […] The subject applied a blinded emulsion designated by a letter to one dorsal forearm and an alternative emulsion with a different designation to the opposite arm, twice per day, for three weeks. […] ISF was extracted from the dorsal forearm, volar upper arm, and serum at one week (“Week 2”) and three weeks after dosing (“Week 4”) and two weeks after the cessation of dosing (“Week 6”).
ISF was extracted from both the treatment site (dorsal forearm) as well as an adjacent, untreated site volar upper arm) following one week of therapy and three weeks of therapy. Subjects ended treatment at this point and returned for a final extraction two weeks later.
The ISF collection period lasted between three and six hours, typically four hours.

O=C1O[C@H]([C@@H](O)CO)C(O)=C1O [Vitamin C]
Effect of vitamin C supplement on concentration of IgE in ISF (IgE): significantly increased | Effect of vitamin C supplement on concentration of IL-1A in ISF (IL-1A): significantly increased | Effect of vitamin C supplement on concentration of IL-1 RA in ISF (IL-1 RA): significantly increased | Effect of vitamin C supplement on concentration of MMP-1 in ISF (MMP-1): significantly increased | MMP-1 (log), Sun-exposed, Supplement Yes, MEAN (MMP-1; sun-exposed ISF): 0.64 | MMP-1 (log), Sun-protected, Supplement Yes, MEAN (MMP-1; sun-protected ISF): 0.91 | Influence of topical application on levels at an adjacent, untreated site or the serum [1]: does not influence | Level at application site two weeks after ending therapy (week six) [1]: decreased to approximate baseline values | Response of serum level to topical therapy [1]: did not respond
